According to patent publication US20090239953A1, “USE OF AN ANTI-CANCER COMPOUND” (priority 2006, published 2009):
Read-outs that look alike come from different tables or passages of the source.

Tests used:
serum IL-6 = assay: Serum IL-6 ELISA in mice with induced cervical cancer; format: in vivo; details: for Serum IL-6 levels vs normal saline treated mice: mice with induced cervical cancer, P<0.01 One-Way ANOVA
Method: All female offspring exposed to DES in uteri were pooled together and were divided into 4 groups where each group consists of 3 mice. The 5th group consists of 3 mice which was non-exposed to DES. The mice were given treatment starting from 46 days of age to 52 days of age. The treatment was given every alternate day (day 46, 48, 50, 52) which consist of 4 dosages. The treatment was given through intra peritoneal injection. The group 1 mice were treated with 0.9% of Normal Saline and this group acts as a positive control group. The group 2 mice were given 8 mg/kg of Zerumbone while the group 3 mice were given 16 mg/kg of Zerumbone. […] Finally no treatment was given to the mice in group 5 as they act as a negative control (normal mice) for the studies. Following treatment, all the mice were sacrificed at 54 days of age. The blood sample was collected through heart punctured method into a plain tube and was centrifuged at 3000 rpm for 15 minutes. The supernatant (serum) was collected into an eppendorf tube and was immediately stored in ice (0° C.—temporary storage). Once serum from all the samples was collected, the serum was stored at −20° C. Then the mice were dissected. The reproductive organ of the mice were collected and washed with 0.9% normal saline. The washed organ was soaked in 10% formalin and stored at room temperature.
The IL-6 serum levels in normal mice were used as negative control.

[1] = system: cervical cancer cells (HeLa cells); assay: TUNEL assay apoptosis, HeLa; format: cell-based, human; details: IC50 values, 24 and 48 hours, P<0.01 vs control
Description: Apoptosis was quantified manually after TUNEL Assay. Data shown are mean±SD from duplicate samples. A double dagger denotes a P of <0.01 when compared with control as performed by One-Way ANOVA;

HeLa cancer cells [2] = assay: Confocal microscopy with AO/PI stain, HeLa; format: cell-based, human; details: 48 hours, laser scanning confocal microscopy
Method: The plates were removed from the incubator after 24 and 48 hours of incubation period. The medium containing cells was transferred into labeled Eppendorf tubes (of each treated samples) placed in ice. The remaining cells in the wells were trypsinised until all cells were detached from the surfaces of each well. The medium containing cells in the Eppendorf tube was then transferred into the well of the tissue culture plate (of similar sample) to neutralise the trypsin. The medium in the wells was later transferred back into the Eppendorf tube (of similar sample) and centrifuged at 3000 rpm for 5 minutes, 4° C. Supernatant was discarded and 1 mL of 70% of cold alcohol was added. The pellet was re-suspended and placed in ice for 15 minutes for fixation. The samples were then centrifuged again at 3000 rpm for 5 minutes, 4° C. The supernatants containing the alcohol were discarded. The pellet was then re-suspended in 1 mL of phosphate buffer saline (PBS) and placed in ice for 10 minutes. The samples were centrifuged again, re-suspended in 1 mL of PBS and placed in ice for 10 minutes. This procedure was repeated again before discarding the supernatant.
The pellet containing cells was re-suspended with 15 μl of 10 μg/mL AO/PI mixture. Approximately 10 μl of the cell suspension was placed on a glass slide, and anti-fading agents were added onto the cells. […]

[3] = system: ovarian carcinoma cells (Caov-3 cells); assay: TUNEL assay apoptosis, Caov-3; format: cell-based, human; details: Caov-3, IC50 values, 24 and 48 hours, P<0.05 or P<0.01 vs control
Description: Apoptotic cells were quantified manually after TUNEL Assay. Data shown are mean±SD from duplicate samples. A single dagger denotes a P of <0.05 when compared with control; a double dagger denotes a P of <0.01 when compared with control as performed by One-Way ANOVA;

Caov-3 cancer cells = assay: Morphological study under normal inverted microscope, Caov-3; format: cell-based, human; details: Caov-3, treated at IC50 value, 24, 48 and 72 hours
Method: (§1) Treated cancer cells of HeLa and Caov-3 in 96-well plates were observed under normal inverted microscope following 24, 48 and 72 hours of incubation. Apoptotic features of treated cells were examined and compared concurrently to untreated cells. The cells were observed under inverted microscope at magnification 20×10.

HeLa cancer cells [4] = assay: Morphological study under normal inverted microscope, HeLa; format: cell-based, human; details: treated at IC50 value, 24, 48 and 72 hours
Method: as §1

[5] = system: human cervical cancer cells, HeLa; assay: Micro Tetrazolium (MTT) cytotoxicity assay on HeLa
Method: HeLa and Caov-3 cell lines were maintained in RPMI 1640 and DMEM high glucose respectively, supplemented with 10% FCS, 1% penicillin and 1% streptomycin. Cells were allowed to proliferate as monolayer cultures in 25 cm^2 and 75 cm^2 tissues culture flasks, in a humidified atmosphere containing 5% CO2 at 37° C.
A haemacytometer was used to determine the concentration of cells in the flask. Confluent cells were trypsinised in order to detach cells from surface of the flask. 10 mL of fresh medium was added into the flask and the cells were suspended thoroughly. 10 μl of medium from the flask was then transferred into a haemacytometer with cover slip. The counting was done under an inverted microscope and facilitated by manual counter usage. The cell density (for an example 1×10^5 cells/mL) was calculated. Using a multi-channel pipette, 100 μl of cell culture solution was transferred into each well of a 96-well microtiter plate. For a 6 well microtiter plate, 2 ml of the cell culture solution was pipetted instead. The plate was incubated overnight at 37° C. in 5% CO2.
The concentrations of zerumbone in each experiment varied according to the optimization of the experiment conducted. The controls or untreated cells received only medium without any treatment of either compounds. Treated cells were then incubated at 37° C. in 5% CO2.
This assay is based on the metabolic reduction of soluble MTT by mitochondrial enzyme activity of viable cancer cells, into an insoluble coloured formazan product, which can be measured spectrophotometrically after dissolution in dimethyl sulfoxide (DMSO) (Carmichale et al., 1987). The MTT assay was conducted according to the methods of Kumi-Diaka et at (1998) with minor modifications. The concentration of MTT solution used was 5 mg/mL. The MTT solution was prepared by dissolving 250 mg of MTT powder in 50 mL of phosphate buffer saline (PBS). A 0.2 micron syringe filter was used to filter the dissolved MTT. The filtered MTT solution was transferred into a sterile 50 mL centrifuge tube and covered with aluminum foil. This solution was stored in 4° C. and is ready to be used. The MTT assay was carried out as follows:
96-well microtiter plates containing cell culture solution were removed from the incubator after 72 hours incubation. 20 μl of 5 mg/mL MTT solution was added into each well including control wells. The plates were then wrapped with aluminium foil and incubated further for 4 hours at 37° C. in 5% CO2. After incubation, excess MTT reagent was aspirated and 100 μl of DMSO was added to dissolve the remaining purple colour formazan crystals. The plates were gently mixed on a plate shaker for approximately 4 minutes. The absorbance of the formazan solution was determined at 450 nm using a microplate reader.

[6] = system: induced cervical cancer in female balb/c mice; assay: DES-induced cervical cancer in female balb/c mice, cervical histology (H&E); format: in vivo; details: intra peritoneal, 4 dosages on alternate days, normal saline group CIN III
Method: 1 male mouse was cohabitate with 3 female mice for 48 hours prior to experiment to stimulate the ovulation of the female mice. After 48 hours, 1 male mouse was cohabitate with 1 female mouse. The next morning, the female mice were checked for a vaginal plug. The detection of vaginal plug at the vagina of the female mice were considered as the first day of pregnancy and gestation day (G=0). Once the female mouse was pregnant the corresponding male mouse was separated from the cage. Only one pregnant female mouse was placed in each cage to reduce the stress among the mice and also to reduce the chances of cannibalization of offspring by the mothers. The pregnant mice were given subcutaneous injection of 67 μg/kg body weight diethylstilbestrol (DES) dissolved in sesame oil (refer to appendix for DES preparation) from gestation day (13 to 18). Since the reproductive tract is developing during this time, so giving the DES injection too early may cause stillbirth. The mice gave birth approximately at gestation day (19 to 22). The offspring were weaned at 22 days of age. 1 female offspring was subjected for the confirmation of cervical dysplasia at 41 days of age. The other offspring were subjected for the treatment with cisplatin, zerumbone and normal saline.
All female offspring exposed to DES in uteri were pooled together and were divided into 4 groups where each group consists of 3 mice. […]

HeLa cells = assay: Cell cycle study by flow cytometry, HeLa; format: cell-based, human; details: 24 hours, zerumbone 0 to 45 μM
Method: Cells were plated in 25 cm^2 tissue culture flasks at concentrations of 0.5×10^5 cells/mL. After an overnight incubation, the cells were cultured in the presence of zerumbone at concentrations as indicated above for 24 hours. Cells were harvested using trypsin-EDTA before centrifuging at 3000 rpm for 5 minutes. The cells pellet was then re-suspended in 2 mL of phosphate buffer saline (PBS). The re-suspended cells were centrifuged at 3000 rpm for 5 minutes and the resulting cells pellet was re-suspended again in 1 mL of cold PBS. The cells were fixed by the addition of 4 mL of cold absolute ethanol (kept in −20° C. prior to use). The fixed cells were stored in −20° C. overnight before resuming the staining procedure.

Coa3 cancer cells = assay: Cell cycle study by flow cytometry, Caov-3; format: cell-based, human; details: Coa3 (Caov-3) cancer cells

| Compound | Serum IL-6 levels vs normal mice (negative control) (serum IL-6; 10 mg/kg cisplatin) | Serum IL-6 levels vs normal saline treated mice (serum IL-6) | Apoptosis quantified after TUNEL Assay [1] | Morphological changes after AO/PI staining (HeLa cancer cells [2]) | Apoptosis, apoptotic cells quantified after TUNEL Assay [3] | Morphological changes / cell growth vs untreated control (Caov-3 cancer cells) | Morphological changes / cell growth vs untreated control (HeLa cancer cells [4]) | IC50 value, growth proliferation of HeLa ([5]; MTT, 72-hours post-treatment) | IC50 ([5]; read-out: IC50 value (±S.E.M), growth proliferation of HeLa, MTT, 72-hours post-treatment) | Cervical tissue dysplasia grade (CIN) ([6]; 10 mg/kg cisplatin) | Serum IL-6 levels vs normal mice (negative control) (serum IL-6; 16 mg/kg zerumbone) | Cell cycle progression (G2/M, G1, S phase) (HeLa cells) | Cell cycle progression (G2/M, G1, S phase) (Coa3 cancer cells) | IC50 ([5]; Homo sapiens, 72 h, read-out: IC50 value (±S.E.M), growth proliferation of HeLa) | IC50 ([5]; Homo sapiens, 72 h, read-out: IC50 value, growth proliferation of HeLa) | Cervical tissue dysplasia grade (CIN) ([6]; 16 mg/kg zerumbone) |
| --- | --- | --- | --- | --- | --- | --- | --- | --- | --- | --- | --- | --- | --- | --- | --- | --- |
| N.N.[Cl][Pt][Cl] [cisplatin, reference compound] | almost near to the serum level of normal mice | lower | induced apoptosis | blebbing of the cell membrane, nuclear condensation with margination and nuclear damage | induced apoptosis | Prominent growth retardation | Prominent growth retardation | 1.6 µg/mL | 7.5 µM | mild dysplastic changes (CIN I) |  |  |  |  |  |  |
| C/C1=C\CC(C)(C)/C=C/C(=O)/C(C)=C/CC1 [zerumbone] |  | lower | induced apoptosis | blebbing of the cell membrane, nuclear condensation with margination and nuclear damage | induced apoptosis | Prominent growth retardation | Prominent growth retardation |  |  |  | almost near to the serum level of normal mice | increase in the number of HeLa cancer cells and Coa3 cancer cells in the G2/M phase and a decrease in the G1 phase and S phase | increase in the number of HeLa cancer cells and Coa3 cancer cells in the G2/M phase and a decrease in the G1 phase and S phase | 11.3 µM | 2.5 µg/mL | mild dysplastic changes (CIN I) |
